Laboratory results from ChEMBL document CHEMBL1152038, “Quaternised renzapride as a potent and selective 5-HT4 receptor agonist” (Bioorg Med Chem Lett, 1993).
pEC50, pKi: −log10 of the molar value.

Experiments:
[1] = biological target: 5-hydroxytryptamine receptor 4 (Rattus norvegicus) (UniProt Q62758); assay: Tested for its efficacy against the 5-hydroxytryptamine 4 receptor located in the rat esophageal tunica muscularis mucosae; assay type: tissue-based; conditions: Muscularis mucosa
[2] = biological target: 5-hydroxytryptamine receptor 4 (Rattus norvegicus, UniProt Q62758); assay: Tested for its agonist potency against the 5-hydroxytryptamine 4 receptor located in the rat esophageal tunica muscularis mucosae; assay type: functional, tissue-based, Muscularis mucosa
Sequence of 5-hydroxytryptamine receptor 4 (Q62758 whole entry): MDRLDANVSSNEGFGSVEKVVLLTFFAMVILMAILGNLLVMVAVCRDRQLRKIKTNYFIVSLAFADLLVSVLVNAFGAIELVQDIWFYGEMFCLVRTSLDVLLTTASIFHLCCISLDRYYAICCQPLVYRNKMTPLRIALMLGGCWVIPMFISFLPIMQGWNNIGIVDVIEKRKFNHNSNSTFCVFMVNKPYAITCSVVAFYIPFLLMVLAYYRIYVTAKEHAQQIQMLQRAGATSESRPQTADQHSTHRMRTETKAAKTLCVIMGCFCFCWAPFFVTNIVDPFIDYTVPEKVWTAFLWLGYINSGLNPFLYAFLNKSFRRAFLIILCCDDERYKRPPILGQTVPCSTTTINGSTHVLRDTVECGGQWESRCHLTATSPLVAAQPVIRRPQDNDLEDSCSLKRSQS

[3] = biological target: T1, Serotonin 3 (5-HT3) receptor (Rattus norvegicus, UniProt P35563+Q9JJ16); assay: Tested for its binding affinity by measuring its ability to displace [3H]granisetron from 5-hydroxytryptamine 3 receptor in rat cortex
T1 sequence (P35563 whole entry): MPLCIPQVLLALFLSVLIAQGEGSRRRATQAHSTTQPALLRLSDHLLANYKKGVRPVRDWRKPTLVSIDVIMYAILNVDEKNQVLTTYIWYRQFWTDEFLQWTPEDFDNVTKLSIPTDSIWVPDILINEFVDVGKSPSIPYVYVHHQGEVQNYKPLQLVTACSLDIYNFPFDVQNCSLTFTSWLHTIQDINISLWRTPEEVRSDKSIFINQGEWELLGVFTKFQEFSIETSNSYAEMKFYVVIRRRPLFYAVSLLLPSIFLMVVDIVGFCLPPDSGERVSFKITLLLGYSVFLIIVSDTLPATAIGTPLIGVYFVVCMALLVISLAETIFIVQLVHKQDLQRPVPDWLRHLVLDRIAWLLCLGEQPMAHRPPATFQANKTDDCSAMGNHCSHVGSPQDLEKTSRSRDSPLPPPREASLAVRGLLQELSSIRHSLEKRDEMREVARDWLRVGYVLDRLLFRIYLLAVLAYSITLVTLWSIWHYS
T1 sequence (Q9JJ16 whole entry): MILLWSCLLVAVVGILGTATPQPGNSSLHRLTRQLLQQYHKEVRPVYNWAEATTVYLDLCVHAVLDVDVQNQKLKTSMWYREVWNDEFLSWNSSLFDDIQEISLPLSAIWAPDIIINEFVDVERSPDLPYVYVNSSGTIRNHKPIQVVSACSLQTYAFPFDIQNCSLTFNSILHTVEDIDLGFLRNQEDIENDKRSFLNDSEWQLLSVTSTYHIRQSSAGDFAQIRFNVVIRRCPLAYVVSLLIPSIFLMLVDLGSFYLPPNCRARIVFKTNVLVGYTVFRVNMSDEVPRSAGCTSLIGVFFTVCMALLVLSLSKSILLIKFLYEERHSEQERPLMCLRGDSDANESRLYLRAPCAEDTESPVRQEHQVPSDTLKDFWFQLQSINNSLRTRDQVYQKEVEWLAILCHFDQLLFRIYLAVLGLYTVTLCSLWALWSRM

Sequence of 5-hydroxytryptamine receptor 4 (Rattus norvegicus) (Q62758 whole entry): as the sequence (Q62758 whole entry) above

Row | Compound | Intrinsic activity [1] | pEC50 [2] | pKi [3]
1 | CC(C)n1c(=O)n(C(=O)NC2CC3CCC(C2)N3C)c2ccccc21 (centres undefined) | 0.9 | 7.90 | 8.80
2 | CCCC[N+]12CCCC(C1)C(NC(=O)c1cc(Cl)c(N)cc1OC)CC2 (centres undefined) | 0.79 | 8.02 | 6.90
3 | CCN(CC)CCNC(=O)c1cc(Cl)c(N)cc1OC [METOCLOPRAMIDE] | 0.8 |  | 6.80
4 | COc1cc(N)c(Cl)cc1C(=O)NC1CCN2CCCC1C2 (centres undefined) [RENZAPRIDE] | 0.8 | 7.20 | 8.30
5 | CCn1c(=O)n(C(=O)NC2CC3CCC(C2)N3C)c2ccccc21 (centres undefined) | 0.7 | 8.00 | 8.40
